pIC50: −log10 of the molar value. Like-named read-outs stand apart in the source and are kept apart here. *1 amine or outer side, *2 acyl side, *3 side chain or, on linkers, in order; H or OH if unused. Where a SMILES comes first, the peptide text is derived from it. Bridges are numbered along the chain shown (N, C = ends). [ ]: non-standard residue; d: D form. The star is where a group is joined. X124 = CC(C)C(=O)N1[C@@H]2CC[C@H]1C=C(c1ccc(F)cc1C[C@@H](C(=O)[*:2])N(C)[*:1])C2; NMePhe(2-(4-MorPh),5-Cl) = CN[C@@H](Cc1cc(Cl)ccc1-c1ccc(N2CCOCC2)cc1)C(=O)O; NMeAla(5-Cl-2-cPrO-3-pyridyl) = CN[C@@H](Cc1cc(Cl)cnc1OC1CC1)C(=O)O; X137 = CN([C@@H](Cc1cc(F)ccc1-c1cnn(S(C)(=O)=O)c1)C(=O)[*:2])[*:1]; NMePhe(5-Cl,2-O(2-Pym)) = CN[C@@H](Cc1cc(Cl)ccc1Oc1ncccn1)C(=O)O; NMehhhLys(Me) = CN([C@@H](CCCCCCCN(C)[*:3])C(=O)[*:2])[*:1]; X117 = Cc1cc(-c2ccc(F)cc2C[C@@H](C(=O)[*:2])N(C)[*:1])cnn1; X44 = Cc1nnc(-c2ccc(Cl)cc2C[C@@H](C(=O)[*:2])N(C)[*:1])o1; NMe(hhhLys) = CN([C@@H](CCCCCCCN[*:3])C(=O)[*:2])[*:1]; Cyclobutanecarbonyl(1-CF3) = O=C(C1(C(F)(F)F)CCC1)*; cBuCO(3,3-F2-1-CF3) = O=C(C1(C(F)(F)F)CC(F)(F)C1)*; Pro(trans-4-F) = O=C(O)[C@@H]1C[C@@H](F)CN1; Pivaloyl(3,3,3-F3) = CC(C)(C(=O)*)C(F)(F)F; Gly(cPr) = N[C@H](C(=O)O)C1CC1
How the values were obtained:
CyclinA2/CDK2 = target: T1, CyclinA2/CDK2 (Homo sapiens, UniProt P20248); assay: Fluorescence Polarization (FP) competitive binding assay, Cyclin A2/Cdk2;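 also: plates equilibrated two hours at room temperature before polarization reading, IC50 fitted from eight-concentration compound titration curves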
T1 construct: purchased CRELUX Protein Services

CyclinB1/CDK1 = target: T2, CyclinB1/CDK1 (Homo sapiens, UniProt P14635); assay: Fluorescence Polarization (FP) competitive binding assay, Cyclin B1/Cdk1;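 also: fluorescence polarization read after equilibration at room temperature, with IC50 taken from serially diluted dose-response curves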
T2 construct: purchased Eurofins, discovery 14-450

CyclinE1/CDK2 = target: T3, CyclinE1/CDK2 (Homo sapiens, UniProt P24864); assay: Fluorescence Polarization (FP) competitive binding assay, Cyclin E1/Cdk2;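 also: readings taken after two-hour equilibration at room temperature in HEPES buffer with NaCl, DTT, NP-40 and BSA, IC50 fitted from eight-concentration serial dilution series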
T3 construct: purchased Eurofins, discovery 14-475

NCI-H1048 cells = assay: MTT proliferation assay, NCI-H1048; type: cell-based; settings: 5 days compound exposure, 1:3 serial dilution starting at 10 μM;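 also: Dose-response in 96-well plates over 8 or 10 concentration points, with exposure spanning 3-4 cell doublings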
OVCAR3 cells = assay: MTT proliferation assay, OVCAR3; type: cell-based; settings: 5 days compound exposure, 1:3 serial dilution starting at 10 μM;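 also: compound given as an 8- or 10-point series, one day after plating, with exposure covering roughly 3-4 cell doublings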
[1] = 8 nM Cyclin A2/Cdk2, 2 nM FAM probe; average of 2-3 independent experiments; read-out: Cyclin A FP IC50
[2] = 10 nM Cyclin B1/Cdk1, 2 nM FAM probe; average of 2-3 independent experiments; read-out: Cyclin B FP IC50
[3] = 10 nM Cyclin E1/Cdk2, 2 nM FAM probe, average of 2-3 independent experiments, read-out: Cyclin E FP IC50

## CC(C)C[C@@H]1NC(=O)[C@@H](N(C)C(=O)[C@@H](NC(=O)[C@@H]2C[C@@H](F)CN2C(=O)C2(C(F)(F)F)CC(F)(F)C2)C2CC2)CCCCCCCNC(=O)[C@H](Cc2cc(F)ccc2C2=C[C@@H]3CC[C@H](C2)N3C(=O)C(C)C)N(C)C1=O [Example 315] ({cBuCO(3,3-F2-1-CF3)}-[Pro(trans-4-F)][Gly(cPr)][NMe(hhhLys)]L[X124]; lactam 3-C)
CyclinA2/CDK2; [1]
  pIC50: 7.52
CyclinB1/CDK1; [2]
  pIC50: 7.70
CyclinE1/CDK2; [3]
  pIC50: 6.38
NCI-H1048 cells
  GI50: 20 nM
OVCAR3 cells
  GI50: 20 nM

## CC(C)C[C@@H]1NC(=O)[C@@H](N(C)C(=O)[C@@H](NC(=O)[C@@H]2C[C@@H](F)CN2C(=O)C2(C(F)(F)F)CC(F)(F)C2)C2CC2)CCCCCCCN(C)C(=O)[C@H](Cc2cc(Cl)ccc2Oc2ncccn2)N(C)C1=O [Example 155] ({cBuCO(3,3-F2-1-CF3)}-[Pro(trans-4-F)][Gly(cPr)][NMehhhLys(Me)]L[NMePhe(5-Cl,2-O(2-Pym))]; lactam 3-C)
CyclinA2/CDK2; [1]
  pIC50: 7.00
CyclinB1/CDK1; [2]
  pIC50: 7.70
CyclinE1/CDK2; [3]
  pIC50: 6.39
NCI-H1048 cells
  GI50: 10 nM
OVCAR3 cells
  GI50: 20 nM

## CC(C)C[C@@H]1NC(=O)[C@@H](N(C)C(=O)[C@@H](NC(=O)[C@@H]2C[C@@H](F)CN2C(=O)C2(C(F)(F)F)CCC2)C2CC2)CCCCCCCNC(=O)[C@H](Cc2cc(Cl)cnc2OC2CC2)N(C)C1=O [Example 108] ({Cyclobutanecarbonyl(1-CF3)}-[Pro(trans-4-F)][Gly(cPr)][NMe(hhhLys)]L[NMeAla(5-Cl-2-cPrO-3-pyridyl)]; lactam 3-C)
CyclinA2/CDK2; [1]
  pIC50: 7.30
CyclinB1/CDK1; [2]
  pIC50: 7.70
CyclinE1/CDK2; [3]
  pIC50: 6.74
NCI-H1048 cells
  GI50: 20 nM
OVCAR3 cells
  GI50: 30 nM

## Cc1cc(-c2ccc(F)cc2C[C@H]2C(=O)N(C)CCCCCCC[C@H](N(C)C(=O)[C@@H](NC(=O)[C@@H]3C[C@@H](F)CN3C(=O)C3(C(F)(F)F)CC(F)(F)C3)C3CC3)C(=O)N[C@@H](CC(C)C)C(=O)N2C)cnn1 [Example 293] ({cBuCO(3,3-F2-1-CF3)}-[Pro(trans-4-F)][Gly(cPr)][NMehhhLys(Me)]L[X117]; lactam 3-C)
CyclinA2/CDK2; [1]
  pIC50: 7.00
CyclinB1/CDK1; [2]
  pIC50: 7.70
CyclinE1/CDK2; [3]
  pIC50: 5.70
NCI-H1048 cells
  GI50: 50 nM
OVCAR3 cells
  GI50: 90 nM

## CC(=O)N1[C@H]2CC[C@@H]1C=C(c1ccc(F)cc1C[C@H]1C(=O)N(C)CCCCCCC[C@H](N(C)C(=O)[C@@H](NC(=O)[C@@H]3C[C@@H](F)CN3C(=O)C3(C(F)(F)F)CC(F)(F)C3)C3CC3)C(=O)N[C@@H](CC(C)C)C(=O)N1C)C2 [Example 58]
CyclinA2/CDK2; read-out: Cyclin A FP IC50; 8 nM Cyclin A2/Cdk2, 2 nM FAM probe; average of 2-3 independent experiments
  pIC50: 7.70
CyclinB1/CDK1; read-out: Cyclin B FP IC50; 10 nM Cyclin B1/Cdk1, 2 nM FAM probe; average of 2-3 independent experiments
  pIC50: 7.70
CyclinE1/CDK2
  pIC50: 6.21
NCI-H1048 cells
  GI50: 10 nM
OVCAR3 cells
  GI50: 10 nM

## Cc1nnc(-c2ccc(Cl)cc2C[C@H]2C(=O)N(C)CCCCCCC[C@H](N(C)C(=O)[C@@H](NC(=O)[C@@H]3C[C@@H](F)CN3C(=O)C3(C(F)(F)F)CC(F)(F)C3)C3CC3)C(=O)N[C@@H](CC(C)C)C(=O)N2C)o1 [Example 162] ({cBuCO(3,3-F2-1-CF3)}-[Pro(trans-4-F)][Gly(cPr)][NMehhhLys(Me)]L[X44]; lactam 3-C)
CyclinA2/CDK2; [1]
  pIC50: 7.70
CyclinB1/CDK1; [2]
  pIC50: 7.70
CyclinE1/CDK2; [3]
  pIC50: 6.66
NCI-H1048 cells
  GI50: 10 nM
OVCAR3 cells
  GI50: 10 nM

## CC(C)C[C@@H]1NC(=O)[C@@H](N(C)C(=O)[C@@H](NC(=O)[C@@H]2C[C@@H](F)CN2C(=O)C2(C(F)(F)F)CC(F)(F)C2)C2CC2)CCCCCCCNC(=O)[C@H](Cc2cc(Cl)ccc2-c2ccc(N3CCOCC3)cc2)N(C)C1=O [Example 333] ({cBuCO(3,3-F2-1-CF3)}-[Pro(trans-4-F)][Gly(cPr)][NMe(hhhLys)]L[NMePhe(2-(4-MorPh),5-Cl)]; lactam 3-C)
CyclinA2/CDK2; [1]
  pIC50: 7.70
CyclinB1/CDK1; [2]
  pIC50: 7.70
CyclinE1/CDK2; [3]
  pIC50: 5.94
NCI-H1048 cells
  GI50: 10 nM
OVCAR3 cells
  GI50: 10 nM

## CC(C)C[C@@H]1NC(=O)[C@@H](N(C)C(=O)[C@@H](NC(=O)[C@@H]2C[C@@H](F)CN2C(=O)C2(C(F)(F)F)CC(F)(F)C2)C2CC2)CCCCCCCNC(=O)[C@H](Cc2cc(Cl)cnc2OC2CC2)N(C)C1=O [Example 103] ({cBuCO(3,3-F2-1-CF3)}-[Pro(trans-4-F)][Gly(cPr)][NMe(hhhLys)]L[NMeAla(5-Cl-2-cPrO-3-pyridyl)]; lactam 3-C)
CyclinA2/CDK2; [1]
  pIC50: 7.22
CyclinB1/CDK1; [2]
  pIC50: 7.70
CyclinE1/CDK2; [3]
  pIC50: 6.46
NCI-H1048 cells
  GI50: 30 nM
OVCAR3 cells
  GI50: 50 nM

## CC(C)C[C@@H]1NC(=O)[C@@H](N(C)C(=O)[C@@H](NC(=O)[C@@H]2C[C@@H](F)CN2C(=O)C(C)(C)C(F)(F)F)C2CC2)CCCCCCCN(C)C(=O)[C@H](Cc2cc(F)ccc2-c2cnn(S(C)(=O)=O)c2)N(C)C1=O [Example 304] ({Pivaloyl(3,3,3-F3)}-[Pro(trans-4-F)][Gly(cPr)][NMehhhLys(Me)]L[X137]; lactam 3-C)
CyclinA2/CDK2; [1]
  pIC50: 7.40
CyclinB1/CDK1; [2]
  pIC50: 7.70
CyclinE1/CDK2; [3]
  pIC50: 6.72
NCI-H1048 cells
  GI50: 10 nM
OVCAR3 cells
  GI50: 10 nM

## CC(=O)N1CC=C(c2ccc(Cl)cc2C[C@H]2C(=O)N(C)CCCCC=CC[C@H](N(C)C(=O)[C@@H](NC(=O)[C@@H]3C[C@@H](F)CN3C(=O)C3(C(F)(F)F)CC(F)(F)C3)C3CC3)C(=O)N[C@@H](CC(C)C)C(=O)N2C)CC1 [Example 31]
CyclinA2/CDK2; [1]
  pIC50: 7.52
CyclinB1/CDK1; [2]
  pIC50: 7.70
CyclinE1/CDK2; [3]
  pIC50: 5.66
NCI-H1048 cells
  GI50: 80 nM
OVCAR3 cells
  GI50: 150 nM

Reference: patent US20240408169A1 (priority 2023, published 2024)
